Reference: ChEMBL document CHEMBL1201862, “PubChem BioAssay data set” (2004)
Calls of active or inactive are those of the source.

Experiments:
[1] = L. donovani amastigote growth inhibition, dose response, axenic amastigotes, plate reader, cherry pick (AID 651891); assay type: functional, cell-based; settings: Leishmania donovani
[2] = T. b. rhodesiense proliferation inhibition, dose response, STIB900 strain, plate reader, cherry pick (AID 651893); assay type: functional, cell-based; settings: Trypanosoma brucei
[3] = T. cruzi growth inhibition in host cells, dose response, cell-based, plate reader, dry powder, set 2 (AID 652275); assay type: functional
[4] = T. b. rhodesiense proliferation inhibition, dose response, STIB900 strain, plate reader, dry powder (AID 651894); assay type: functional, cell-based
[5] = P. falciparum blood-stage growth inhibition, dose response, NF54 strain, plate reader, dry powder (AID 651889); assay type: functional, cell-based
[6] = L. donovani amastigote growth inhibition, dose response, axenic amastigotes, plate reader, dry powder (AID 651892); assay type: functional, cell-based
[7] = intracellular Trypanosoma cruzi inhibitors in host cells – cell-based, plate reader, cherry-pick samples, set 3, dose response (AID 651818); assay type: functional;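 note: compounds incubated with infected cells for about four days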
[8] = growth inhibition of intracellular T. cruzi, dose response, cell-based, plate reader, dry powder samples (AID 651845); assay type: functional
[9] = T. cruzi intracellular amastigote growth inhibition, dose response, imaging, CA-I/72 strain, bovine embryo skeletal muscle, dry powder (AID 651885); assay type: functional, cell-based
[10] = cytotoxicity in L-6 rat myocytes, dose response, cytotoxicity control, cell-based, plate reader, cherry-pick (AID 651896); assay type: functional
[11] = L-6 rat myoblast cytotoxicity, dose response, counter-screen for T. cruzi inhibitor project, cell-based, plate reader, dry powder (AID 651895); assay type: functional
[12] = T. cruzi amastigote growth inhibition, dose response, Tulahuen strain, L-6 host cells, dry powder (AID 651890); assay type: functional, cell-based
[13] = TB:CFU starved Measured in Microorganism System Using Imaging - 7108-06_Inhibitor_Dose_DryPowder_Activity_Set2.; assay type: functional
[14] = Dose-response inhibition of insulin secretion in a rat insulinoma line at 5 mM glucose (AID 1117331); assay type: functional, cell-based; settings: INS-1E
[15] = target: T1, Endoplasmic reticulum aminopeptidase 1 (Homo sapiens, UniProt Q9NZ08); assay: ERAP1 enzyme inhibitors, dose response, biochemical, fluorescence plate reader, dry powder (AID 1117292); assay type: functional
T1 sequence (Q9NZ08 whole entry): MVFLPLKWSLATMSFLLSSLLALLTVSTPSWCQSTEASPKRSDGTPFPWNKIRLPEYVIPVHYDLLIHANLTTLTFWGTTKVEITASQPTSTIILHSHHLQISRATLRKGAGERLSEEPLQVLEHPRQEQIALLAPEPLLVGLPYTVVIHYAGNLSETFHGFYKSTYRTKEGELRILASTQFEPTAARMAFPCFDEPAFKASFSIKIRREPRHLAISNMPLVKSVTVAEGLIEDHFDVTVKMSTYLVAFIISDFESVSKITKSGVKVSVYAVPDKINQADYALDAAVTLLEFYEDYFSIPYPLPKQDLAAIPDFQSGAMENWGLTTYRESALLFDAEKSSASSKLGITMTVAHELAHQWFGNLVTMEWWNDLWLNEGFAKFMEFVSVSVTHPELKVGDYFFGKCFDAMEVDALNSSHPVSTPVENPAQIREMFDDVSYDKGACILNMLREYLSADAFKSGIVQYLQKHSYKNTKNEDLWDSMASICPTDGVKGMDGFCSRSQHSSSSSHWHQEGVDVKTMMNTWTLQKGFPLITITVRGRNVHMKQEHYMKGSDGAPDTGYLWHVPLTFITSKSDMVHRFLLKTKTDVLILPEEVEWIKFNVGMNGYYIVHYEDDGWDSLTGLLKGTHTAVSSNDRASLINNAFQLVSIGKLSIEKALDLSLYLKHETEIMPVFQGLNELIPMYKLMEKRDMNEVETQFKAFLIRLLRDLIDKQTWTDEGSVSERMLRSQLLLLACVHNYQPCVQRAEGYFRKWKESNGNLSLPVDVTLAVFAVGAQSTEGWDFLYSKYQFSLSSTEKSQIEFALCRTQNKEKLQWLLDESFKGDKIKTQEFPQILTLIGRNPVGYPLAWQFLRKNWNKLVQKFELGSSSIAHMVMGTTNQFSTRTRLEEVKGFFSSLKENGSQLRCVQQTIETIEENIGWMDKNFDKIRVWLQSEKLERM

[16] = target: T1, Endoplasmic reticulum aminopeptidase 1; assay: ERAP1 aminopeptidase inhibitors, dose response, biochemical, cherry-pick, set 2, plate reader (AID 743314)
[17] = IGROV1 ovarian cancer cell cytotoxicity, dose response, PAX8 inhibitor project, plate reader, dry powder samples (AID 743043); assay type: functional, cell-based; settings: IGROV-1
[18] = HEK293T cytotoxicity, dose response, cytotoxicity control for miR-122 modulator project, cell-based, inhibitor set, cherry-pick, set 2 (AID 720697); assay type: functional
[19] = IOSE-T80 ovarian epithelial cell cytotoxicity, dose response, cytotoxicity control for PAX8 inhibitor project, plate reader, dry powder samples (AID 743045); assay type: functional, cell-based
[20] = A549 cell cytotoxicity, dose response, CellTiter-Glo luminescence, dry powder, set 17 (AID 1117284); assay type: functional, cell-based
[21] = A549 cell cytotoxicity, dose response, cytotoxicity control, 24 h, CellTiter-Glo luminescence, cherry-picks (AID 1053115); assay type: functional, cell-based; settings: A549, 24 h
Paired box protein Pax-8 = Paired box protein Pax-8 (Homo sapiens, UniProt Q06710); assay: inhibitors of PAX8-driven TPO luciferase reporter, dose response, RMG-I cells, cherry-pick (AID 687027); assay type: functional, cell-based;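 note: luciferase reporter driven by Pax8 target thyroperoxidase promoter measured by SteadyGlo luminescence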
Chain of Paired box protein Pax-8 (Q06710 whole entry): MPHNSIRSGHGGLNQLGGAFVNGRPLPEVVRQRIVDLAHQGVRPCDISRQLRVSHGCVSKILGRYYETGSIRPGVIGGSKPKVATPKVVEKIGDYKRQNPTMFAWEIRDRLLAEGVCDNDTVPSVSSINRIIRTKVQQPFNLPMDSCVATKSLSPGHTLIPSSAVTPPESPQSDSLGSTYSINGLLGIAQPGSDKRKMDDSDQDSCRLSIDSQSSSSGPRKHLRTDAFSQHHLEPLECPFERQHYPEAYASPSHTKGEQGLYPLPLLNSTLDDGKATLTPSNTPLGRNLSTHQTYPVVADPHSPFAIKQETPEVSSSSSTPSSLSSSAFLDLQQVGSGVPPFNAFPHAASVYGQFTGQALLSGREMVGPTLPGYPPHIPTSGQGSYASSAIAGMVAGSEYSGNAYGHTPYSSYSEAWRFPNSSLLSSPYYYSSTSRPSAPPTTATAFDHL

[22] = HEK293T cytotoxicity, dose response, cytotoxicity control for miR-122 modulator project, cell-based, activator set, cherry-pick (AID 720690); assay type: functional;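 note: HEK293T human cells scored for general mammalian cytotoxicity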
[23] = NIH:OVCAR-3 ovarian cancer cell cytotoxicity, dose response, PAX8 inhibitor project, plate reader, dry powder samples (AID 743044); assay type: functional, cell-based
[24] = cytotoxicity in OVCAR8 ovarian cancer cells, dose response, PAX8 project, cell-based, plate reader, dry powder samples (AID 743197); assay type: functional; settings: OVCAR-8
[25] = P. falciparum Dd2 growth inhibitors, dose response, SYBR Green, cherry-picked samples (AID 1159567); assay type: functional, cell-based
[26] = CTGF mRNA reduction under YAP1 overexpression, dose response, mechanism study for YAP1 pathway inhibitor project, DLD1 cells, RT-qPCR, cherry-pick (AID 1053127); assay type: functional, cell-based; settings: DLD-1
[27] = YAP1 pathway inhibition via CTGF transcript levels, dose response, cell-based, DLD1 colon cancer, RT-qPCR, cherry-pick (AID 1053122); assay type: functional; settings: Cancer cell lines
[28] = target: NAD-dependent protein deacylase sirtuin-5, mitochondrial (Homo sapiens, UniProt Q9NXA8); assay: SIRT5 desuccinylase inhibitors, dose response, biochemical, fluorescence imaging, cherry-pick, set 5 (AID 720591);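 note: desuccinylation of succinyl peptide AMC substrate read as fluorescence after trypsin release; potency of inhibitors that lower fluorescence and may act on trypsin instead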
Chain of NAD-dependent protein deacylase sirtuin-5, mitochondrial (Q9NXA8 whole entry): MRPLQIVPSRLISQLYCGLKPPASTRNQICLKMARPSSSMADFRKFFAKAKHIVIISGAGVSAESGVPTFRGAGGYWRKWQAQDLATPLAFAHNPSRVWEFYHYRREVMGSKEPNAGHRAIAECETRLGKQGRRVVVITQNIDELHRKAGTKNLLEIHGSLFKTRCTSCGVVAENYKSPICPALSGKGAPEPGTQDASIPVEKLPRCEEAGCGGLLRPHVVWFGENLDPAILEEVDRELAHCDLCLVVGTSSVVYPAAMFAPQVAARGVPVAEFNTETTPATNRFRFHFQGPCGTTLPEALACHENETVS

[29] = Luminescence-based cell-based high throughput dose response assay to identify activators of the DAF-12 from the parasite S. stercoralis (ssDAF-12).; assay type: functional
[30] = target: T2, Oxysterols receptor LXR-beta (Homo sapiens, UniProt P55055); assay: LXR agonists, Gal4 luciferase reporter, dose response, counter-screen for ssDAF-12 agonist project, cell-based, luminescence, HEK293, S. stercoralis campaign (AID 720737); assay type: functional; settings: read-out: IC50 (the source's name)
T2 sequence (P55055 whole entry): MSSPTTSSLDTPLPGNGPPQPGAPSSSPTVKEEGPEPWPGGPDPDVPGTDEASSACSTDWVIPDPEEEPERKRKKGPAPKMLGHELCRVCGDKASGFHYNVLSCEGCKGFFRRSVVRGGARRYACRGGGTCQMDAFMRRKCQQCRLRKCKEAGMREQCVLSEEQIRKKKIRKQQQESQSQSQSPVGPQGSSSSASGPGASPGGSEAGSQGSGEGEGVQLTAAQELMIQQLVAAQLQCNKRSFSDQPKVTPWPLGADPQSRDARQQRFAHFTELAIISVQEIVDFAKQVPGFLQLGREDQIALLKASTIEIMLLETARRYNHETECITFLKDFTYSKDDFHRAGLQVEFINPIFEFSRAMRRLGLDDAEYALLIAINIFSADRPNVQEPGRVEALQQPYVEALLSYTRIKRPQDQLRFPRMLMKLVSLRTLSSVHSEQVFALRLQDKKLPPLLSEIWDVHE

[31] = HepG2 cell cytotoxicity, dose response, cytotoxicity control for Shn3 inhibitor project, CellTiter-Glo, cherry-picked (AID 624134); assay type: functional, cell-based
HEK293 [32] = assay: cells; settings: Homo sapiens
[33] = Shn3 3'UTR reporter inhibitors, dose response, cell-based, Clone20 osteoblasts, firefly luciferase, cherry-picked (AID 624132); assay type: functional;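 note: firefly luciferase luminescence from reporter carrying the Shn3 3'UTR in osteoblasts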
HEK293 [34] = assay: cells; settings: Homo sapiens; remark: listed apart in the source
[35] = target: T3, DNA repair protein RAD52 homolog (Homo sapiens, UniProt P43351); assay type: functional, biochemical
T3 sequence (P43351 whole entry): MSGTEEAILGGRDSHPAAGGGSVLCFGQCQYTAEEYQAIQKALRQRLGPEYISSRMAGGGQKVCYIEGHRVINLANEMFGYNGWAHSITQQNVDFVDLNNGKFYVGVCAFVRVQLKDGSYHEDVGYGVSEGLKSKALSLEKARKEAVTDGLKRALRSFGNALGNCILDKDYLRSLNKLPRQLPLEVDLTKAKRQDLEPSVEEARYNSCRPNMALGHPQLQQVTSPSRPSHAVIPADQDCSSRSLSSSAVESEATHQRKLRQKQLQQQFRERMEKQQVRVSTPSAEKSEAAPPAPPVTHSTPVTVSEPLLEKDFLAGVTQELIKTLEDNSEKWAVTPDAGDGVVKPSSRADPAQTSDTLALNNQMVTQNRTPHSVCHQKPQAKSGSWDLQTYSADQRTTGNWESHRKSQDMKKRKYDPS

[36] = target: E3 ubiquitin-protein ligase UHRF1 (Homo sapiens, UniProt Q96T88); assay: Counterscreen for inhibitors of 5-meCpG-binding domain protein 2 (MBD2): TRFRET-based biochemical high throughput dose response assay to identify inhibitors of binding of ubiquitin-like with PHD and ring finger domains 1 (UHRF1) to methylated oligonucleotide.
Chain of E3 ubiquitin-protein ligase UHRF1 (Q96T88 whole entry, the tested form may be a part): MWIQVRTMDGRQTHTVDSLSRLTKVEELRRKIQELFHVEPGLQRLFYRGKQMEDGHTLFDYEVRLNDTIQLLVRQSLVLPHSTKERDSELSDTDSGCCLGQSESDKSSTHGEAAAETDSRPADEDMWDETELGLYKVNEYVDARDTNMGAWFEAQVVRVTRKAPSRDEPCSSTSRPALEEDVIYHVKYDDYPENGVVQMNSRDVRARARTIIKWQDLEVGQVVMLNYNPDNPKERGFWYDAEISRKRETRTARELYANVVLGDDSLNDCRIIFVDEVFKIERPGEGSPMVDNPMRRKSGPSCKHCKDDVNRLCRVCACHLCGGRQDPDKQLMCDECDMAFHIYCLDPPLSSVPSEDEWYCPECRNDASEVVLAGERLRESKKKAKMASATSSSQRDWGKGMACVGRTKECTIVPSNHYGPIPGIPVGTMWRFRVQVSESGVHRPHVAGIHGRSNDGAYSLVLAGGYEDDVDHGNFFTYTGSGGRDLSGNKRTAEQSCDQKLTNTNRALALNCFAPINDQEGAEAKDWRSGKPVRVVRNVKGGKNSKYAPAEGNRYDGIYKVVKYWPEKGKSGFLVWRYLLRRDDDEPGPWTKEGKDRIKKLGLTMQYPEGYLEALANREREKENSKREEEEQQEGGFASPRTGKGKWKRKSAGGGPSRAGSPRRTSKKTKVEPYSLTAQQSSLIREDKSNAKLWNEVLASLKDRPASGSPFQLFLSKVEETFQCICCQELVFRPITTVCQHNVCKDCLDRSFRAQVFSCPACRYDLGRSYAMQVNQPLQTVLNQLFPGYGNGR

[37] = THP-1 cell cytotoxicity, dose response, cytotoxicity control for Vif-APOBEC3G degradation inhibitor project, THP-1 cells (AID 1117359); assay type: functional; settings: Human immunodeficiency virus 1, THP-1
[38] = target: Glutathione-S-transferase (Schistosoma japonicum, UniProt Q26513); assay: biotin-GST/anti-GST TR-FRET signal inhibitors, dose response, artefact control for Vif-APOBEC3G degradation inhibitor project, biochemical (AID 1117362); assay type: functional
Chain of Glutathione-S-transferase (Q26513 whole entry): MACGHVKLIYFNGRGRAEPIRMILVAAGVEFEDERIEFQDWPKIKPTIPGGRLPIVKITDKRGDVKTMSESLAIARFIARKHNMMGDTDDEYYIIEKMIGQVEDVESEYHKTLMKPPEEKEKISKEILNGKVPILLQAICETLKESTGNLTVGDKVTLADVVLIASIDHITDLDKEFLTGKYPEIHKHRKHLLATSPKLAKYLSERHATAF

Vero = Vero cell cytotoxicity, cytotoxicity control for flavivirus capping enzyme inhibitors (AID 588742); assay type: functional; settings: Chlorocebus sabaeus
Protein skinhead-1 = target: T4, Protein skinhead-1 (Caenorhabditis elegans, UniProt P34707); assay type: functional
T4 sequence (P34707 whole entry): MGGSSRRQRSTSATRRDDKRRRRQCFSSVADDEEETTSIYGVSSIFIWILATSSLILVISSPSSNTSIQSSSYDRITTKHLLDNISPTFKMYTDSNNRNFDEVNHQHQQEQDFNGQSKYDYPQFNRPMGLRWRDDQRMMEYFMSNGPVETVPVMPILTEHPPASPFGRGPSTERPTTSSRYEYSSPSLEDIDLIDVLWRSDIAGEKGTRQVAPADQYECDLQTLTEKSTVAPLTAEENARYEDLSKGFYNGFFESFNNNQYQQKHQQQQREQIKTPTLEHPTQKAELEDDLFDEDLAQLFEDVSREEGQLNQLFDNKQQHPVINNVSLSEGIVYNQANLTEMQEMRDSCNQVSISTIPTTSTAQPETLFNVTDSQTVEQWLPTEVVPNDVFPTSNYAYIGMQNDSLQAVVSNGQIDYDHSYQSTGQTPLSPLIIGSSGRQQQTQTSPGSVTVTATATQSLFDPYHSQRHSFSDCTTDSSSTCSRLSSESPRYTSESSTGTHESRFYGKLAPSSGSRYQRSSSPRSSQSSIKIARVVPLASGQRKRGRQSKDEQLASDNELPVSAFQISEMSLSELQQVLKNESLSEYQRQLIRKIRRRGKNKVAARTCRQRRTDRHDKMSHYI

[39] = inhibitors of PGC1a acetylation in cells, dose response, cell-based, cherry-picked samples (AID 720514); assay type: functional;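 note: potency may reflect raised or lowered acetylation signal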
[40] = growth suppression of beta-catenin-knockout colon cells, dose response, cell-based, HCT116, human colon tumor (AID 1045); assay type: functional;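 note: HCT116 colon tumor cells with beta catenin knocked out; cells exposed to compound for 60 hours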
[41] = growth suppression of PTEN-null colon cells, dose response, cell-based, HCT116 PTEN knockout (AID 1047); assay type: functional;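 note: HCT116 colon tumor cells with PTEN knocked out; cells exposed to compound for 60 hours before readout; potency for loss of cell viability measured by luminescence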
[42] = A549 cell cytotoxicity, dose response, cytotoxicity control, CellTiter-Glo luminescence, dry powder, set 18 (AID 1117290); assay type: functional, cell-based
[43] = HepG2 cell cytotoxicity, dose response, cytotoxicity control, CellTiter-Glo luminescence, dry powder, set 20 (AID 1117291); assay type: functional, cell-based

Compound: C[C@H]1CN([C@@H](C)CO)C(=O)c2cccc(NC(=O)c3ccncc3)c2O[C@H]1CN(C)Cc1ccc(Oc2ccccc2)cc1
- IC50 [1]: > 100 µM (inactive)
- IC50 [2]: 6.15 µM (inactive)
- AC50 [3]: 11.6 nM (active)
- IC50 [4]: 3.62 µM (inactive)
- IC50 [5]: 2.94 µM (inactive)
- IC50 [6]: > 100 µM (inactive)
- AC50 [7]: 80 nM (active)
- AC50 [8]: 25.2 nM (active)
- IC50 [9]: 0.42 nM (active)
- IC50 [10]: 43.7 µM (inactive)
- IC50 [11]: 47.5 µM (inactive)
- IC50 [12]: 59 nM (active)

Compound: CCn1c(NC(=O)c2cccnc2O)nc2ccccc21
- AbsAC90 [13]: 89.33 µM

Compound: Cc1cc(-n2nc3ccc(Cl)cc3n2)c(O)c(C(C)(C)C)c1 [BUMETRIZOLE]
- IC50 [14]: > 33.3 µM (inactive)

Compound: CC(=O)N1CCN(C(=O)C2(NC(=O)Nc3ccc(C)cc3)CCCCC2)CC1
- AC50 [15]: 24.8 µM (active)
- AC50 [16]: 8.21 µM (active)

Compound: C[C@H](O)C#Cc1ccc2c(c1)O[C@H](CN(C)Cc1ccc(-c3ccccc3)cc1)[C@@H](C)CN([C@@H](C)CO)S2(=O)=O
- AC50 [17]: 15.9 µM (active)
- AC50 [18]: 1.58 µM (active)
- AC50 [19]: 3.37 µM (active)
- AC50 [20]: 37.9 µM (active)
- AC50 [21]: > 60 µM (inactive)
- AC50 (Paired box protein Pax-8): 3.42 µM (active)
- AC50 [22]: 15.2 µM (active)
- AC50 [23]: 10.7 µM (active)
- AC50 [24]: 43.2 µM (active)

Compound: CO[C@@H]1CN(C)C(=O)c2ccc(NC(=O)c3nc4ccccc4s3)cc2OC[C@@H](C)N(Cc2cccnc2)C[C@H]1C
- AC50 [25]: 4.6 µM (active)
- AC50 [26]: 19.6 µM (active)
- AC50 [27]: 5.03 µM (active)

Compound: CN(C)CCN(Cc1cccs1)S(=O)(=O)c1csc(C(N)=O)c1
- AC50 [28]: > 30 µM (inactive)

Compound: C(=N\Nc1nc2ccccc2s1)/c1cccs1
- IC50 [29]: > 67.5 µM (inactive)
- EC50 [30]: > 67.5 µM (inactive)

Compound: COc1ccc(C(=O)NCCN(C)C)c2nc3ccccc3cc12
- AC50 [31]: 5.16 µM (active)
- EC50 (HEK293 [32]): > 59.5 µM (inactive)
- AC50 [33]: 5.78 µM (active)
- EC50 (HEK293 [34]): > 59.5 µM (inactive)
- AC50 [35]: 1.04 µM (active)
- IC50 [36]: 9.07 µM (active)

Compound: CC[n+]1c(/C=C2/C=C(C)CC(C)(C)C2)sc2ccc(OC)cc21
- CC50 [37]: 4.13 µM (active)
- IC50 [38]: > 100 µM (active)
- CC50 (Vero): > 40 µM (active)

Compound: Cc1[nH]c2ccccc2c1C(=O)/C=C/c1ccccc1
- IC50 (Protein skinhead-1): > 100 µM (inactive)
- AC50 [39]: 29.8 µM (active)
- EC50 [40]: 19.2 µM (active)
- EC50 [41]: 22 µM (active)

Compound: COc1ccc(S(=O)(=O)Nc2cc(C(F)(F)F)ccc2N2CCCCC2)cc1
- AC50 [42]: 46 µM (active)
- AC50 [43]: 33.8 µM (active)
